Test results published in patent US20160287726A1, “CATIONIC CONTRAST AGENTS AND METHODS OF USING THE SAME” (The Trustees of the University of Pennsylvania, priority 2015, published 2016).

Experiments:
[1] = Demetallation assay in 1M HCl; assay type: physicochemical; conditions: 2.5 mM, 37° C.
Procedure: Since transmetallation was not observed in serum supplemented with ZnCl2, the stability of the various Gd complexes were further evaluated by monitoring demetallation in a highly acidic, non-physiologic solution (1M HCl). Even under these harsh conditions, Gd remained complexed with Compound 6 for at least 24 hours (FIG. 3B). […] Since a measurement of the T1 relaxation time could not be acquired at t=0 for this assay, the relaxation ratio could not be calculated. Instead, demetallation was monitored strictly by changes in the T1 relaxation time. In instances of demetallation, the T1 relaxation time moved towards that of free Gd.
Demetallation Assay A 300 μL solution of 2.5 mM Gd-compound was incubated at 37° C. in 1M HCl and the longitudinal relaxation times were acquired at appropriate time points. The relaxation time was then plotted against time.

[2] = Transmetallation assay with ZnCl2 in fetal bovine serum; assay type: physicochemical; conditions: 2.5 mM complex, 2.5 mM ZnCl2, fetal bovine serum, pH 7.4, 37° C., over 72 hours
Procedure: To directly compare the stability of Complex A to Gd-DTPA (Magnevist®) and Gd-DOTA (also known as gadoteric acid), a transmetallation assay using equimolar concentrations of ZnCl2 was performed in fetal bovine serum. Transmetallation was monitored as a function of time by calculating the relaxation ratio, R1(t)/R1(0), where R1(t) is the longitudinal Relaxivity at time t and R1(0) is the longitudinal Relaxivity in the absence of ZnCl2 (i.e. time 0).
Transmetallation of Gd^3+ ion by Zinc^2+ ion was performed in fetal bovine serum. The solution contained 4 mL of 2.5 mM Gd-complex and 2.5 mM ZnCl2 at pH 7.4. The mixture was stirred at 37° C. throughout the experiment while 300 μL aliquot was taken up at the appropriate time for measurement of the longitudinal relaxation time. The water proton relaxation times were measured using a Bruker mq60 tabletop MR relaxometer operating at 1.41T. Ratio of reverse relaxation time at each time point (R1(t)) and relaxation time at time zero (R1(0)) was plotted against time.

[3] = system: GAG-rich cartilage (articular cartilage microparticles from juvenile bovine femurs); assay: Electrostatic interaction with cartilage microparticles (T1 of supernatant); assay type: binding; conditions: normalized to average T1 of respective control
Procedure: To assess whether Gd-DOTA-Am4 interacts electrostatically with GAG-rich cartilage, articular cartilage from juvenile bovine femurs was ground into microparticles. These microparticles were then mixed and incubated with Gd-DOTA, Gd-DTPA, or Gd-DOTA-Am4. The microparticles were then pelleted and the T1 relaxation time of the supernatant was measured. Measurements were compared to analogous control Gd complexes that were not incubated with cartilage microparticles (FIG. 5). All samples were normalized to the average T1 relaxation time of their respective control.

[4] = Relaxivity measurements (longitudinal relaxivity r1); assay type: physicochemical; conditions: Bruker mq60 MR relaxometer, 1.41 T (60 MHz), saline pH 7.4
Procedure: Compound2 was prepared by bromination of methyl acrylate using bromine in chloroform at room temperature, while compound 3 was prepared by slow addition of diethylamine into compound 2 in ether at 0° C. The methyl and ethyl protecting groups were efficiently removed with a methanol:NaOH (0.5 M) solvent cocktail (40:60) for 48 h. The solution was neutralized with a 2 M HCl solution and dried. The residue was redissolved in pure methanol, and the precipitate that formed was filtered and the solvent dried in vacuuo to yield compound 6. […] In comparison, the longitudinal relaxivity of Magnevist® was measured to be 3.9 mM^−1s^−1 (FIG. 2B).
Longitudinal relaxation times (T1) were measured in saline at pH 7.4 using a Bruker mq60 tabletop MR relaxometer operating at 1.41 T. The longitudinal relaxivity (r1) of the complex was calculated by plotting the reciprocal of the T1 relaxation time versus the gadolinium concentration.

[5] = system: adult bovine menisci explants with defect; assay: Contrast-enhanced T1-weighted MR imaging of meniscus explants with defect; conditions: 2 mM, pH 7.4, ~30 min bath; for qualitative contrast / signal intensity within soft tissue defect: T1-weighted images, 4.7 T
Procedure: To evaluate the efficacy of Complex A in highlighting soft tissue tears in comparison to Gd-DTPA, explants (8 mm in diameter) were obtained from adult bovine menisci. Well-defined defects were then introduced by using a punch to create a 4 mm internal core, which was left in place. Tissue explant blocks (n=9; 3 per group) were placed in a 48-well microplate and bathed in 2 mM Gd-DTPA, Complex A, or Saline (pH 7.4) for ˜30 min. The pH and concentration of Gd^+3 was kept constant throughout the experiment. T1-weighted images were then acquired in the axial plane (FIGS. 6A and 7). […] In the saline samples, the defects were extremely difficult to identify. To acquire a more quantitative comparison between the three groups, regions of interest (ROI) were drawn around the lateral defects and, following background subtraction (FIGS. 6B-D), the total signal intensity (area under curve) within the ROI was quantified and normalized to the length of the tear (FIG. 6E). The Wilcoxon signed-rank test was then used to compare contrast enhancement for the various contrast agents.
Adult bovine stifle joints were purchased from a commercial vendor (Animal Technologies, Tyler, Tex.), dissected in a sterile field, and the menisci removed. Biopsy punches (Miltex, York, Pa.) were used to produce 8 mm diameter full thickness samples in the axial plane. Well-defined defects were then introduced by using a 4 mm punch to create an internal core, which was left in place. […]
A region of interest (ROI) was determined for each MR image slice (n=6 per contrast agent, i.e. 2 slices per sample). […] The ROI height was determined for each slice individually, such that it could span the sample from top to bottom and exclude media and unrelated bright areas within the cartilage (e.g., cavities near the liquid-cartilage interface). […]
ROIs were partitioned into one-pixel tall lines spanning the entire width. […] All of the integrations in an ROI were then averaged to quantify that ROI's average signal intensity. […]

[6] = system: bovine meniscal fibrochondrocytes (MFCs); assay: Cell-based safety assay on meniscal fibrochondrocyte monolayers; conditions: over 24 hours, basal media, compared with Saline
Procedure: (§1) The safety profile of Gd-DOTA-Am4 was assessed via both cell- and tissue-based assays. […] Similarly, after intra-articular injection of Saline, Gd-DTPA, or Gd-DOTA-Am4 into the joint space of an intact bovine femorotibial explant, the area fractions of live and dead cells in the cartilage and meniscus were equivalent after 3 hours (p>0.05) (FIG. 9).

[7] = system: cartilage and meniscus of an intact bovine femorotibial explant; assay: Tissue-based safety assay, intra-articular injection into femorotibial explant; conditions: after 3 hours, compared with Saline, p>0.05
Procedure: as §1

SMILES	time Gd remained complexed (demetallation) ([1]; monitored by T1 relaxation time)	transmetallation (relaxation ratio R1(t)/R1(0)) [2]	demetallation (T1 relaxation time) [1]	T1 relaxation time of supernatant after incubation with cartilage microparticles vs control without microparticles [3]	longitudinal relaxivity [4]	qualitative contrast / signal intensity within soft tissue defect [5]	qualitative contrast / signal intensity within soft tissue defect ([5]; listed as Magnevist®)	total signal intensity within ROI normalized to length of tear (contrast enhancement) ([5]; statistical comparison between groups)	cell morphology, viability, and proliferation [6]	area fractions of live and dead cells in the cartilage and meniscus [7]
NCC(C(=O)O)N1CCN(C(CN)C(=O)O)CCN(C(CN)C(=O)O)CCN(C(CN)C(=O)O)CC1 (stereo not drawn) [Compound 6, 1,4,7,10-tetraazacyclododecane-N,N′,N″,N′″-(α-(aminomethyl))-tetraacetic acid]	at least 24 hours	–	–	–	–	–	–	–	–	–
O=C([O-])CN1CCN(CC(=O)[O-])CCN(CC(=O)O)CCN(CC(=O)[O-])CC1.[Gd+3] [Gd-DOTA, 1,4,7,10-tetraazacyclododecane-1,4,7,10-tetraacetic acid (DOTA) gadolinium complex]	–	No transmetallation was detected	rapid demetallation	no change in the relaxation time	–	–	–	–	–	–
O=C([O-])CN(CCN(CC(=O)[O-])CC(=O)O)CCN(CC(=O)[O-])CC(=O)O.[Gd+3] [Gd-DTPA, Diethylenetriaminepentaacetic acid (DTPA) gadolinium complex]	–	rapidly increased	rapid demetallation	no change in the relaxation time	3.9 mM⁻¹ s⁻¹	much less contrast was observed within the defect at greater depths	less contrast was observed within the defect at greater depths	statistically significant improvement in contrast compared to saline	qualitatively similar between groups	equivalent
